# Data: patent US11319348B2, “Synthetic beta-amyloid peptides capable of forming stable antigenic oligomers” (The Regents of the University of California, priority 2016, dated 2022)
# Non-standard residues stand in square brackets, D forms with d. No end group written: not given here. NMeF = CN[C@@H](Cc1ccccc1)C(=O)O; Orn = NCCC[C@H](N)C(=O)O
# Columns and labels:
# SH-SY5Y cells = experiment: LDH release assay; format: cell-based, human; details: for LDH release / toxicity toward SH-SY5Y cells, in words / LDH release / lowest concentration with increased LDH release / toxicity (concentrations as low as): SH-SY5Y cells; for LDH release: 72 h
# Description: Aβ is known to be toxic toward neurons and neuronally derived cells (I. Benilova, et al., 2012, cited supra). To corroborate the toxicity of Aβ, we prepared oligomers of Aβ42 and studied their toxicity toward a human neuroblastoma cell line, SH-SY5Y. Aβ oligomers were prepared according to the procedure developed by Teplow and coworkers using recombinantly expressed Aβ42 pretreated with NH4OH (purchased from rPeptide) (D. B. Teplow, Methods Enzymol. 2006 413, 20-33; and Y. Fezoui, et al., Amyloid. 2000 7, 166-178; the disclosures of which are incorporated herein by reference). Under the conditions of the oligomer preparation, Aβ42 forms predominantly monomer, trimer, and tetramer as assessed by SDS-PAGE (FIG. 28A). It was also observed that bands migrated with molecular weights consistent with a pentamer and hexamer. SH-SY5Y cells were treated with varying concentrations of Aβ42, and toxicity was evaluated using a lactate dehydrogenase (LDH) release assay. Aβ42 increased LDH release in a dose-dependent manner at concentrations as low as 2.5 μM, corroborating the toxicity of Aβ42 (FIG. 28B).
# It was hypothesized that trimers 3 and 4 may elicit toxicity similarly to Aβ42. The toxicities of trimers 3 and 4 towards SH-SY5Y cells were evaluated using an LDH assay, using deionized water (vehicle) and peptides 1 and 2 as controls. Trimer 4 increased LDH release in a dose-dependent manner at concentrations as low as 1.5 μM, indicating toxicity toward SH-SY5Y cells (FIG. 29A). LDH release was observed as early as 48 h after addition to the cells and reached a maximum after 72 h.
# Many oligomers formed by full-length Aβ are toxic toward cells (I. Benilove, E. Karan, and B. De Strooper, Nat. Neurosci. 2012 15, 349-357; and M. E. Larson and S. E. Lesne J. Neurochem. 2012 120, 125-139; the disclosures of which are incorporated herein by reference). To test whether the oligomers formed by peptide 8 are also toxic, the toxicity of peptide 8 toward neuronally derived SH-SY5Y cells were evaluated using a lactate dehydrogenase (LDH) release assay. Peptide 8 and 10 were compared to investigate how the hexamer-forming Aβ16-36-derived peptide compares to a non-oligomerizing homologue. The toxicity of peptides 2 and 11 were also evaluated to better understand the relationship between oligomerization and toxicity.
# The toxicities of peptides 1 and […], and trimers 3 and 4 toward SH-SY5Y cells were assessed by LDH release and caspase-3 activation assays. Cells were incubated in the presence or absence of equivalent concentrations of peptides 1 or 3, or trimers 3 and 4 for 72 h in 96-well plates. The LDH release assay was performed using the Pierce LDH Cytotoxicity Assay Kit from Thermo Scientific. The caspase-3 assay was performed using the Roche APO-One Homogeneous Caspase-3/7 Assay. Experiments were performed in replicates of five and an additional 10 wells were used for controls. Cells were cultured in the inner 60 wells (rows B-G, columns 2-11) of the 96-well plate. DMEM:F12 media (100 μL) was added to the outer wells (rows A and H, columns 1 and 12), in order to ensure the greatest reproducibility of data generated in the inner wells.
# A 10 mg/mL stock solution of peptides 1 or […], or trimers 3 and 4 was prepared gravimetrically by dissolving 1 mg of each compound in 100 μL of deionized water that was either filtered through a 0.2 μm syringe filter or autoclaved. The stock solution was used to create 180 μM working solutions of peptides 1 or 3, or 60 μM working solutions of trimers 3 and 4 (these solutions contain equivalent concentrations of peptide). The 180 μM working solutions of peptides 1 and 2 were serially diluted with deionized water to create 90 μM working solutions of peptides 1 and 2. The 60 μM working solutions of trimers 3 and 4 were serially diluted with deionized water to create 30 μM, 15 μM, and 7.5 μM working solutions of trimers 3 and 4.
# SH-SY5Y cells were plated in a 96-well plate at 30,000 cells per well. […]
# [1] = Tricine SDS-PAGE with silver staining; format: physicochemical
# Description: Trimer 3 migrates as a single band at a molecular weight consistent with a hexamer. Trimer 4, in contrast, migrates as two distinct bands: a band consistent with the molecular weight of a dodecamer, and a band consistent with the molecular weight of a trimer.
# Peptide 8 assembles to form a hexamer in SDS-PAGE. […] To further confirm the oligomerization state of […], it was compared to covalent trimers 3 and 4 (FIGS. 19A and 19B), which was previously determined to migrate respectively as 10.6 kDa hexamers and 21.2 kDa dodecamers in equilibrium with the 5.3 kDa trimers. Peptide 8 migrates at the same molecular weight as the hexamer band of trimer 3, providing further evidence that peptide 8 assembles to form a hexamer in SDS-PAGE.
# The oligomerization of peptides 1 and 2 and trimers 3 and 4 was studied by Tricine SDS-PAGE.
# Each peptide or trimer was dissolved in deionized water to a concentration of 10 mg/mL. An aliquot of the 10 mg/mL solutions was diluted with deionized water to create 2 mg/mL solutions of peptides 1 and 2, or 0.12 mg/mL solutions of trimers 3 and 4. The […] of peptides 1 and 2, as well as the 0.12 mg/mL solutions of trimers 3 and 4 were further diluted with 2×SDS-PAGE loading buffer (100 mM Tris buffer at pH 6.8, 20% (v/v) glycerol, and 4% SDS) to create 1 mg/mL working solutions of peptides 1 and 2, and 0.06 mg/mL working solutions of trimers 3 and 4. A 5 μL aliquot of each working solution was run on a 16% polyacrylamide gel with a 4% stacking polyacrylamide gel. The gels were run at a constant 60 volts at 4° C.
# Staining with silver nitrate was used to visualize peptides 1 and 2 and trimers 3 and 4 in the SDS-PAGE gel. Briefly, the gel was removed from the casting glass and rocked in fixing solution (50% (v/v) methanol and 5% (v/v) acetic acid in deionized water) for 20 min. Next, the fixing solution was discarded and the gel was rocked in 50% (v/v) methanol for 10 min. Next, the 50% methanol was discarded and the gel was rocked in deionized water for 10 min. Next, the water was discarded and the gel was rocked in 0.02% (w/v) sodium thiosulfate in deionized water for 1 min. The sodium thiosulfate was discarded and the gel was rinsed with deionized water (2×). After the last rinse, the gel was submerged in chilled 0.1% (w/v) silver nitrate in deionized water and rocked at 4° C. for 20 min. Next, the silver nitrate solution was discarded and the gel was rinsed with deionized water (2×). To develop the gel, the gel was incubated in developing solution (2% w/v sodium carbonate, 0.04% formaldehyde until the desired intensity of staining was reached (˜1-3 min). When the desired intensity of staining was reached, the development was topped by discarding the developing solution and submerging the gel in 5% acetic acid.
# [2] = after addition to SH-SY5Y cells
Substance,"LDH release / toxicity toward SH-SY5Y cells, in words (SH-SY5Y cells)",LDH release (SH-SY5Y cells),oligomer size by SDS-PAGE [1],lowest concentration with increased LDH release / toxicity (concentrations as low as) (SH-SY5Y cells) [µM],oligomer state by migration in SDS-PAGE [1],time at which LDH release reached a maximum (SH-SY5Y cells; [2]) [h],time at which LDH release was first observed (as early as) (SH-SY5Y cells; [2]) [h]
"peptide 1: macrocyclic β-sheet peptide: Aβ17-23 and Aβ30-36 strands linked by two δOrn turns, Orn35, N-methyl on G33 (Seq. ID 18-19)",little or no LDH release,no,1-2,,,,
"peptide 2: macrocyclic β-sheet peptide: Aβ17-23 and Aβ30-36 strands linked by two δOrn turns, Orn35, N-methyl on F20 (Seq. ID 20-21)",little or no LDH release,no,1-2,100,monomer or dimer,,
"trimer 3: symmetric tris-disulfide crosslinked trimer generated from peptide 3 (chain 1 [Orn]CVFFCED; chain 2 [Orn]AIIGL[Orn]V; not fully specified (some residues); also: symmetric tris-disulfide crosslinked trimer, macrocyclic by macrolactamization, linkage of strands not given here)",far less LDH release than trimer 4,some,6,,hexamer,,
"trimer 4: symmetric tris-disulfide crosslinked trimer generated from peptide 4 (chain 1 [Orn]CVF[NMeF]CED; chain 2 [Orn]AIIGL[Orn]V; also: symmetric tris-disulfide crosslinked trimer, macrocyclic by macrolactamization, linkage of strands not given here)",,yes,,1.5,,72,48
